Source: US20080261994A1, “CYCLOPROPANE COMPOUNDS AND PHARMACEUTICAL USE THEREOF” (Japan Tobacco Inc., priority 2003, published 2008)
Like-named read-outs stand apart in the source and are kept apart here.

Columns and labels:
Format in all cases: biochemical
MMP-1 = molecular target: T1, MMP-1 (Homo sapiens, UniProt P03956); assay: MMP-1 inhibitory action (Type I collagen Activity Measurement kit, FITC-labeled collagen type I)
T1 sequence (P03956 100-469): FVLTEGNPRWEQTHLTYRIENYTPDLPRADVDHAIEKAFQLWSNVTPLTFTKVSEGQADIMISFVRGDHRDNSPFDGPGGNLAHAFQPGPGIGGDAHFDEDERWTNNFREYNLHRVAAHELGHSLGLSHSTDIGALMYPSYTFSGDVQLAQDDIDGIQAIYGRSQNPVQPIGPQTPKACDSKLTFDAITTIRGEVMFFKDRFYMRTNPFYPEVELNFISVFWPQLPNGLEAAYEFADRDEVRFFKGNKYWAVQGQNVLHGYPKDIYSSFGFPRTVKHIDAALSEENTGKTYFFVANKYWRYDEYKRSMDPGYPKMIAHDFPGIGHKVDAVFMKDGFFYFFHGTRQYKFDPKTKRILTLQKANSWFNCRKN

aggrecanase-1 = molecular target: T2, aggrecanase-1 (Homo sapiens, UniProt O75173); assay: Aggrecanase-1 inhibitory action (Particle Assay, GAG release from aggrecan-containing polyacrylamide particles)
T2 sequence (O75173 213-837): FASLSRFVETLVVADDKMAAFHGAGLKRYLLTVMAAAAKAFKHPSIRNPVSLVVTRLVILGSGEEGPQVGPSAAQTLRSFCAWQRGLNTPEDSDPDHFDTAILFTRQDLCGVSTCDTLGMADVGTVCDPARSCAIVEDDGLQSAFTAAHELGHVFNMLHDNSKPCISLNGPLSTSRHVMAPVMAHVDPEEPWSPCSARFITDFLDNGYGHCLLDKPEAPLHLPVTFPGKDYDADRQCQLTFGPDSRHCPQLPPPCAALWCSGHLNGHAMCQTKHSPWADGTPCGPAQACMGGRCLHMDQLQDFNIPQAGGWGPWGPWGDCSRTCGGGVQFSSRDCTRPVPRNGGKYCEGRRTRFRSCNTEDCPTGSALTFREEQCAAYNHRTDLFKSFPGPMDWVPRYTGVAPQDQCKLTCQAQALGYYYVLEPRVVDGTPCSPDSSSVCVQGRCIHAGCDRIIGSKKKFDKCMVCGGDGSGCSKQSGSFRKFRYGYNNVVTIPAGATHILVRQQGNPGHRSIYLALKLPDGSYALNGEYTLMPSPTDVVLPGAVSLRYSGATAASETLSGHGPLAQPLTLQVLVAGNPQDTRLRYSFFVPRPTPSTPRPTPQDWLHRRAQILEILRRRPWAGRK
Method in brief: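 Readout was dimethylmethylene blue absorbance (595 nm) of glycosaminoglycan liberated into supernatant, calibrated with whale chondroitin sulfate. Substrate was aggrecan in polyacrylamide particles, digested 15 h at 37° C in Tris-HCl; TC50 (μM) derived from inhibition relative to no-enzyme and no-inhibitor controls.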

Recombinant Human MMP-13 = molecular target: T3, Recombinant Human MMP-13 (Homo sapiens, UniProt P45452); assay: MMP-13 inhibitory activity (MMP-13 specific fluorescent substrate with quencher)
T3 construct: purchased R&D systems 511-MM
Method in brief: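 IC50 (μM) derived from % inhibition, normalised to wells without enzyme and without inhibitor, fluorescence read at 325/405 nm. Enzyme and compound preceded addition of the quenched 7-MCA…DPA substrate; Tris-HCl buffer, 25 °C for 1 h, acetic-acid stop.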

[1] = Experimental Example 2, read-out: IC50 MMP1
[2] = Experimental Example 1, read-out: IC50 AG1
[3] = Experimental Example 3, read-out: IC50 MMP13
[4] = MMP-1 inhibitory action, FITC-labeled collagen type I, 37° C. for 3 hr, read-out: IC50 MMP1 (Experimental Example 2)
[5] = aggrecanase-1 inhibitory action, read-out: IC50 AG1 (Experimental Example 1)
[6] = Recombinant Human MMP-13, fluorescent substrate, 25° C. for 1 h, read-out: IC50 MMP13 (Experimental Example 3)

Structure (SMILES) | IC50 (MMP-1; [1]) [nM] | IC50 (aggrecanase-1; [2]) [nM] | IC50 (Recombinant Human MMP-13; [3]) [nM] | IC50 (MMP-1; [4]) [nM] | IC50 (aggrecanase-1; [5]) [nM] | IC50 (Recombinant Human MMP-13; [6]) [nM]
O=C(Nc1ccccc1)c1ccc(S(=O)(=O)N[C@@]2(C(=O)O)C[C@@H]2c2ccccc2)cc1 [Example 2-474] | ≥ 10000 | ≥ 1000 | ≥ 1000 |  |  | 
COCCCC1(c2ccccc2)CC1(NS(=O)(=O)c1ccc(-c2ccc(Cl)cc2)s1)C(=O)O (stereo not drawn) [Example 2-559] | ≥ 1000 | < 100 | < 1000 |  |  | 
C#Cc1cnn(-c2ccc(S(=O)(=O)N[C@@]3(C(=O)O)[C@H](C)[C@@H]3c3ccccc3)s2)c1 [Example 2-4, (1S,2R,3R)-1-[5-(4-ethynyl-pyrazole-1-yl)-thiophene-2-sulfonylamino]-2-methyl-3-phenyl-cyclopropanecarboxylic acid] |  |  |  | < 1000 | < 100 | < 100
O=C(O)C1(NS(=O)(=O)c2ccc(-c3ccc(Cl)cc3)s2)CC1c1cccc(NS(=O)(=O)c2cccnc2)c1 (stereo not drawn) [Example 1-136] |  |  |  | ≥ 1000 | < 100 | < 100
COCCCC1(c2ccccc2)CC1(NS(=O)(=O)c1ccc(-c2cc(C(F)(F)F)on2)s1)C(=O)O (stereo not drawn) [Example 2-588] | < 1000 | < 100 | < 1000 |  |  | 
CC(O)c1cnn(-c2ccc(S(=O)(=O)N[C@@]3(C(=O)O)C(C)[C@@H]3c3ccccc3)s2)c1 (stereo partly drawn) [Example 2-547] | < 100 | < 100 | < 100 |  |  | 
COCc1cc(-c2ccc(S(=O)(=O)N[C@@]3(C(=O)O)C[C@@H]3c3ccccc3)s2)no1 [Example 2-110] |  |  |  | ≥ 1000 | < 1000 | < 100
O=C(O)C1(NS(=O)(=O)N2CCN(c3ncc(Br)cn3)CC2)CC1c1ccccc1 (stereo not drawn) [Example 2-155] |  |  |  | ≥ 10000 | ≥ 1000 | < 1000
Cc1csc(-c2cccc(C3CC3(NS(=O)(=O)c3ccc(-c4ccc(Cl)cc4)s3)C(=O)O)c2)n1 (stereo not drawn) [Example 2-86] |  |  |  | ≥ 10000 | < 100 | < 1000
CC1[C@H](c2ccccc2)[C@]1(NS(=O)(=O)c1ccc(-n2cc(C#N)cn2)s1)C(=O)O (stereo partly drawn) [Example 2-580] | ≥ 1000 | < 1000 | < 100 |  |  | 
C[C@]1(c2ccccc2)C[C@@]1(NS(=O)(=O)c1ccc(-c2cccc(C(=O)O)c2)s1)C(=O)O [Example 2-479] | ≥ 10000 | ≥ 1000 | ≥ 10000 |  |  | 
O=C(O)[C@@]1(NS(=O)(=O)c2ccc3c(c2)Cc2cc(Br)ccc2-3)C[C@H]1c1ccccc1 [Example 1-109] |  |  |  | ≥ 10000 | < 1000 | < 1000
CC1[C@H](c2ccccc2)[C@]1(NS(=O)(=O)c1ccc2nc(-c3ccccc3)cn2c1)C(=O)O (stereo partly drawn) [Example 2-622] | ≥ 1000 | ≥ 1000 | < 1000 |  |  | 
O=C(O)C1(NS(=O)(=O)c2ccc(-c3cc(C(F)(F)F)on3)s2)CC1c1cccc(N2CCOCC2)c1 (stereo not drawn) [Example 2-257] |  |  |  | ≥ 1000 | < 100 | < 1000
O=C(O)[C@]1(NS(=O)(=O)c2ccc(-c3cc4ccccc4s3)s2)C[C@@H]1c1ccccc1 [Example 2-113] |  |  |  | < 1000 | < 100 | < 100
C[C@]1(c2cccc(Cl)c2)C[C@@]1(NS(=O)(=O)c1ccc(-c2cc(C(F)(F)F)on2)s1)C(=O)O [Example 2-619] | < 1000 | < 100 | < 1000 |  |  | 
O=C(NO)C1(NS(=O)(=O)c2ccc(-c3ccc(Cl)cc3)s2)C2CCc3ccccc3C21 (stereo not drawn) [Example 2-364] | < 1000 | < 1000 | < 100 |  |  | 
C[C@]1(c2ccccc2)C[C@@]1(NS(=O)(=O)c1ccc(-c2ccc(F)c(Cl)c2)s1)C(=O)O [Example 2-413] | ≥ 1000 | < 100 | < 1000 |  |  | 
CN1CCN(C(=O)CCc2ccc([C@H]3C[C@@]3(NS(=O)(=O)c3ccc(-c4cc(C(F)(F)F)on4)s3)C(=O)O)cc2)CC1 [Example 2-280] | ≥ 10000 | < 1000 | < 100 |  |  | 
CN1CCN(C(=O)CCc2cccc(C3CC3(NS(=O)(=O)c3ccc(-c4ccc(Cl)cc4)s3)C(=O)O)c2)CC1 (stereo not drawn) [Example 2-210] |  |  |  | ≥ 10000 | < 1000 | < 100

Structure (SMILES) | IC50 (MMP-1; [1]) [nM] | IC50 (aggrecanase-1; [2]) [nM] | IC50 (Recombinant Human MMP-13; [3]) [nM] | IC50 (MMP-1; [4]) [nM] | IC50 (aggrecanase-1; [5]) [nM] | IC50 (Recombinant Human MMP-13; [6]) [nM]
CC1[C@H](c2ccccc2)[C@]1(NS(=O)(=O)c1ccc(-c2cc(C#N)on2)s1)C(=O)O (stereo partly drawn) [Example 2-579] | < 1000 | < 100 | < 100 |  |  | 
O=C(CCc1cccc(C2CC2(NS(=O)(=O)c2ccc(-c3ccc(Cl)cc3)s2)C(=O)O)c1)N1CCC(O)CC1 (stereo not drawn) [Example 2-224] |  |  |  | ≥ 1000 | < 100 | < 100
CN(C)C(=O)Cc1ccccc1C1CC1(NS(=O)(=O)c1ccc(-c2ccc(Cl)cc2)s1)C(=O)O (stereo not drawn) [Example 2-204] |  |  |  | ≥ 10000 | < 100 | < 1000
CC1[C@H](c2ccccc2)[C@]1(NS(=O)(=O)c1ccc(-c2cc(C(F)(F)F)on2)o1)C(=O)O (stereo partly drawn) [Example 2-372] | ≥ 10000 | ≥ 1000 | ≥ 1000 |  |  | 
O=C(O)C1(NS(=O)(=O)c2ccc(-c3ccc(Cl)cc3)s2)CC1(Cn1ccnc1)c1ccccc1 (stereo not drawn) [Example 2-346] | ≥ 10000 | < 1000 | < 1000 |  |  | 
O=C(O)CCc1cccc(C2CC2(NS(=O)(=O)c2ccc(-c3ccc(Cl)cc3)s2)C(=O)O)c1 (stereo not drawn) [Example 2-180] |  |  |  | ≥ 10000 | < 100 | < 100
O=C(O)C1(NS(=O)(=O)c2ccc3c(c2)Cc2cc(Br)ccc2-3)CC1c1ccccc1 (stereo not drawn) [Example 1-72] |  |  |  | ≥ 1000 | < 100 | < 1000
C[C@]1(c2ccccc2)C[C@@]1(NS(=O)(=O)c1ccc(-c2ccc(C#N)cc2)s1)C(=O)O [Example 2-567] | ≥ 1000 | < 100 | < 1000 |  |  | 
CC1(c2cccnc2)CC1(NS(=O)(=O)c1ccc(-c2cc(C(F)(F)F)on2)s1)C(=O)O (stereo not drawn) [Example 2-617] | ≥ 1000 | < 1000 | ≥ 1000 |  |  | 
C=C(Cl)c1cnn(-c2ccc(S(=O)(=O)N[C@@]3(C(=O)O)C(C)[C@@H]3c3ccccc3)s2)c1 (stereo partly drawn) [Example 2-545] | < 100 | < 100 | < 100 |  |  | 
C[C@]1(c2ccccc2)C[C@@]1(NS(=O)(=O)c1ccc(-c2ccc(F)c(O)c2)s1)C(=O)O [Example 2-600] | ≥ 1000 | < 1000 | < 1000 |  |  | 
CC1[C@H](c2ccccc2)[C@]1(NS(=O)(=O)c1ccc(-n2ccc(C(F)(F)F)n2)s1)C(=O)O (stereo partly drawn) [Example 2-514] | ≥ 1000 | < 1000 | < 1000 |  |  | 
O=C(O)C1(NS(=O)(=O)c2ccc(-c3ccc(Cl)cc3)s2)CC1(CN1CCOCC1)c1ccccc1 (stereo not drawn) [Example 2-341] | ≥ 10000 | < 100 | ≥ 1000 |  |  | 
O=C(O)c1ccc(S(=O)(=O)NC2(C(=O)O)CC2c2ccccc2)s1 (stereo not drawn) [Example 2-103] |  |  |  | ≥ 10000 | ≥ 10000 | ≥ 10000
O=C(Cc1ccc([C@@H]2C[C@]2(NS(=O)(=O)c2ccc(-c3cc(C(F)(F)F)on3)s2)C(=O)O)cc1)N1CCOCC1 [Example 2-291] | < 1000 | < 100 | < 100 |  |  | 
C[C@]1(c2ccccc2)C[C@@]1(NS(=O)(=O)c1ccc(-c2cc(Cl)cc(Cl)c2)s1)C(=O)O [Example 2-448] | ≥ 10000 | ≥ 1000 | ≥ 1000 |  |  | 
O=C(O)[C@]1(NS(=O)(=O)c2ccc(-c3ccc(Cl)cc3)s2)C[C@@H]1c1cccc(Br)c1 [Example 2-136] |  |  |  | ≥ 1000 | < 1000 | < 100
CC1[C@H](c2ccccc2)[C@]1(NS(=O)(=O)c1ccc(-n2cc(C(F)(F)F)cn2)cc1)C(=O)O (stereo partly drawn) [Example 2-507] | < 1000 | ≥ 1000 | < 100 |  |  | 
O=C(O)C1(NS(=O)(=O)c2ccc(-c3ccc(Cl)cc3)s2)CC1C1CCC1 (stereo not drawn) [Example 2-58] |  |  |  | ≥ 10000 | < 1000 | < 1000
